For one test, the target named is JAK2 kinase domain (JH1) (Homo sapiens (Human), UniProt O60674). In words: JAK2 Radioactive Kinase Assay. The test is classed as biochemical. The conditions noted are these: 10 μM compound; 10 μM ATP; read-out: JAK2 JH1% Inhibition @ 10 μM. Put shortly: (§1)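 Each kinase domain is incubated with test compound at 10 μM. Activity is then measured radiometrically and expressed as percent inhibition relative to uninhibited enzyme.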

A further test addresses Tyk2 kinase domain (DH1) (Homo sapiens (Human), UniProt P29597). In words: Tyk2 Radioactive Kinase Assay. To be noted: 10 μM compound; 10 μM ATP; read-out: Tyk2 JH1% Inhibition @ 10 μM. It is filed as biochemical. The procedure, abridged:
as §1

The target of test [1] is human TYK2 (JH2domain-pseudokinase) (Homo sapiens (Human), UniProt P29597). In words: TYK2 JH2 Domain Binding Assay (KINOMEscan). The procedure, abridged: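 Displacement of a DNA-tagged TYK2 JH2 fusion (human, aa G556–D888, HEK293 extract, <0.1 nM) from ligand-coated beads over 1 h at RT; binding buffer PBS/0.05% Tween 20/10 mM DTT/0.1% BSA.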
Sequence of human TYK2 (JH2domain-pseudokinase) (P29597 556-888): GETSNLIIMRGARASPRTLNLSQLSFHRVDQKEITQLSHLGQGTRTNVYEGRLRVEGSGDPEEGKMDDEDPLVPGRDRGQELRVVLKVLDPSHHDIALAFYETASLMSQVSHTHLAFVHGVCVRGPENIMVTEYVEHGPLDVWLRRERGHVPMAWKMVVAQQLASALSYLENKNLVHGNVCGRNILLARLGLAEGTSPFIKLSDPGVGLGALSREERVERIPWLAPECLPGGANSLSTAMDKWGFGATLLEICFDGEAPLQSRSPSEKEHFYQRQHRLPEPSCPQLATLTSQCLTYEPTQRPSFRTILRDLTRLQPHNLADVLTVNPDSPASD

The values below come from patent publication US10508120B2, “TYK2 inhibitors and uses thereof” (Nimbus Lakshmi, Inc., priority 2017, dated 2019).

Sequence of JAK2 kinase domain (JH1) (O60674 849-1124): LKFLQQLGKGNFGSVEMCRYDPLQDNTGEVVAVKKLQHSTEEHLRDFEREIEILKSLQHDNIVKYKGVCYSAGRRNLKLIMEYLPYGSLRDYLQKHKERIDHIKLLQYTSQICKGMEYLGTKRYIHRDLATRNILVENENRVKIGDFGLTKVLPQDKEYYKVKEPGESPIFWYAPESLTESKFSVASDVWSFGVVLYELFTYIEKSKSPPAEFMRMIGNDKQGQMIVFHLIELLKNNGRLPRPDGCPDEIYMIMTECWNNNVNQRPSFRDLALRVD
Sequence of Tyk2 kinase domain (DH1) (P29597 897-1176): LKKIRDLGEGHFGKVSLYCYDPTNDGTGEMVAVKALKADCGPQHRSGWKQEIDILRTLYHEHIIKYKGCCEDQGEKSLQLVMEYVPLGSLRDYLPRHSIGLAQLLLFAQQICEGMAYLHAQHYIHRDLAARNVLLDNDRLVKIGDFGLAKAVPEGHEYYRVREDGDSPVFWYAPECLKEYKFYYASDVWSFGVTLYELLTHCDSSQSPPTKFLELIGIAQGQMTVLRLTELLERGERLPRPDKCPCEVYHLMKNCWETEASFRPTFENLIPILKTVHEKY

With `CNc1cc(Nc2cccn(-c3cnco3)c2=O)nc2c(C(=O)N[C@@H]3CC[C@@H]3O)cnn12` [I-1018], the inhibition at 10 µM at JAK2 kinase domain (JH1) and on Tyk2 kinase domain (DH1) was less than 50% each time. For the same molecule, the Kd in test [1] is 1 to 10 nM.
For `CNc1cc(Nc2cccn([C@H]3CC[C@@H]3OC)c2=O)nc2c(C(=O)NC3CC3)cnn12` [I-1019], the inhibition at 10 µM on JAK2 kinase domain (JH1) and on Tyk2 kinase domain (DH1) was less than 50% each time. In test [1], this molecule yielded a Kd of 0.2 to 1 nM.
Turning to `CNc1cc(Nc2cccn([C@@H]3CC[C@H]3OC)c2=O)nc2c(C(=O)NC3CC3)cnn12` [I-1020], the inhibition at 10 µM at JAK2 kinase domain (JH1) and on Tyk2 kinase domain (DH1) was less than 50% each time. The molecule further registered a dissociation constant Kd in test [1] of 0.2 to 1 nM.
Consider `CNc1cc(Nc2cccn(-c3cccc(F)c3)c2=O)nc2c(C(=O)N[C@@H]3CC[C@H]3O)cnn12` [I-1023], for which the inhibition at 10 µM on JAK2 kinase domain (JH1) and on Tyk2 kinase domain (DH1) was less than 50% throughout. The Kd in test [1] was less than 0.2 nM.
With `CNc1cc(Nc2cccn(-c3cccc(F)c3)c2=O)nc2c(C(=O)N[C@H]3CC[C@@H]3O)cnn12` [I-1024], the inhibition at 10 µM on JAK2 kinase domain (JH1) and at Tyk2 kinase domain (DH1) was less than 50% in each case. The dissociation constant Kd in test [1] was less than 0.2 nM.
Take `CNc1cc(Nc2cccn([C@@H]3CCC[C@@H](OC)C3)c2=O)nc2c(C(=O)NC3CC3)cnn12` [I-1026]: the inhibition at 10 µM on JAK2 kinase domain (JH1) and on Tyk2 kinase domain (DH1) was less than 50% each time. In addition, the Kd in test [1] is less than 0.2 nM.
As for `CNc1cc(Nc2cccn([C@@H]3CCC[C@@H](OC)C3)c2=O)nc2c(C(=O)NCC(C)(C)CO)cnn12` [I-1028], the inhibition at 10 µM on JAK2 kinase domain (JH1) and at Tyk2 kinase domain (DH1) was less than 50% throughout. In test [1], this molecule yielded a Kd of 0.2 to 1 nM.
For `CNc1cc(Nc2cccn([C@H]3CCC[C@H](O)C3)c2=O)nc2c(C(=O)N[C@@H]3C[C@@H]3F)cnn12` [I-1030], the inhibition at 10 µM at JAK2 kinase domain (JH1) and at Tyk2 kinase domain (DH1) was less than 50% each time. For the same molecule, the Kd in test [1] was less than 0.2 nM.
With `CNc1cc(Nc2cccn(C3CCOCC3)c2=O)nc2c(C(=O)NC[C@H](C)CO)cnn12` [I-1031], the inhibition at 10 µM at JAK2 kinase domain (JH1) and at Tyk2 kinase domain (DH1) was less than 50% each time. The molecule also came in with a Kd in test [1] of less than 0.2 nM.
In the case of `CNc1cc(Nc2cccn(C3CCOCC3)c2=O)nc2c(C(=O)NC[C@@H](C)CO)cnn12` [I-1032], the inhibition at 10 µM on JAK2 kinase domain (JH1) and on Tyk2 kinase domain (DH1) was less than 50% throughout. In addition, the Kd in test [1] was in the range of 0.2 to 1 nM.
As for `CNc1cc(Nc2cccn(-c3cccc(F)c3)c2=O)nc2c(C(=O)NC[C@@H](C)CO)cnn12` [I-1033], the inhibition at 10 µM on JAK2 kinase domain (JH1) and on Tyk2 kinase domain (DH1) was less than 50% each time. The molecule also had an equilibrium dissociation constant (Kd) in test [1] of less than 0.2 nM.
As for `CNc1cc(Nc2cccn(-c3cccc(F)c3)c2=O)nc2c(C(=O)NC[C@H](C)CO)cnn12` [I-1034], the inhibition at 10 µM on JAK2 kinase domain (JH1) and at Tyk2 kinase domain (DH1) was less than 50% throughout. Further, the Kd in test [1] was less than 0.2 nM.
Consider `CNc1cc(Nc2cccn(-c3ccccc3F)c2=O)nc2c(C(=O)N[C@@H]3CC[C@@H]3O)cnn12` [I-1036], for which the inhibition at 10 µM on JAK2 kinase domain (JH1) and at Tyk2 kinase domain (DH1) was less than 50% each time. This molecule also yielded a Kd in test [1] of 0.2 to 1 nM.
As to `CNc1cc(Nc2cccn([C@@H]3CCCC[C@@H]3OC)c2=O)nc2c(C(=O)N[C@H]3CC[C@@H]3OC)cnn12` [I-1037], the inhibition at 10 µM on JAK2 kinase domain (JH1) and at Tyk2 kinase domain (DH1) was less than 50% each time. Also, the Kd in test [1] is 0.2 to 1 nM.
`CNc1cc(Nc2cccn(-c3ccccc3F)c2=O)nc2c(C(=O)N[C@@H]3CC[C@H]3O)cnn12` [I-1039]: the inhibition at 10 µM at JAK2 kinase domain (JH1) and on Tyk2 kinase domain (DH1) was less than 50% each time. The equilibrium dissociation constant (Kd) in test [1] is less than 0.2 nM.
For `CNc1cc(Nc2cccn([C@H]3CCCN(CCC#N)C3)c2=O)nc2c(C(=O)N[C@@H]3C[C@@H]3F)cnn12` [I-1040], the inhibition at 10 µM on JAK2 kinase domain (JH1) and at Tyk2 kinase domain (DH1) was less than 50% throughout. Besides, the Kd in test [1] is 0.2 to 1 nM.
For the molecule `CNc1cc(Nc2cccn([C@@H]3CCCN(CCC#N)C3)c2=O)nc2c(C(=O)N[C@@H]3C[C@@H]3F)cnn12` [I-1041], the inhibition at 10 µM on JAK2 kinase domain (JH1) and at Tyk2 kinase domain (DH1) was less than 50% throughout. The molecule also came in with a Kd in test [1] of 0.2 to 1 nM.
For `CNc1cc(Nc2cccn([C@@H]3CCC[C@@H](OC)C3)c2=O)nc2c(C(=O)N[C@@H]3C[C@@H]3F)cnn12` [I-1043], the inhibition at 10 µM on JAK2 kinase domain (JH1) and on Tyk2 kinase domain (DH1) was less than 50% in each case. Further, in test [1], the Kd fell in the range of 0.2 to 1 nM.
As for `CNc1cc(Nc2cccn([C@H]3CCCC[C@H]3OC)c2=O)nc2c(C(=O)NC3CC3)cnn12` [I-1044], the inhibition at 10 µM at JAK2 kinase domain (JH1) and on Tyk2 kinase domain (DH1) was less than 50% in each case. The molecule also registered a Kd in test [1] of 0.2 to 1 nM.
Turning to `CNc1cc(Nc2cccn([C@H]3CCCC[C@H]3OC)c2=O)nc2c(C(=O)N[C@@H]3C[C@@H]3F)cnn12` [I-1045], the inhibition at 10 µM on JAK2 kinase domain (JH1) and on Tyk2 kinase domain (DH1) was less than 50% throughout. The Kd in test [1] fell in the range of 0.2 to 1 nM.
Regarding `CNc1cc(Nc2cccn([C@H]3CCCC[C@H]3OC)c2=O)nc2c(C(=O)NCC(C)(C)CO)cnn12` [I-1046], the inhibition at 10 µM on JAK2 kinase domain (JH1) and at Tyk2 kinase domain (DH1) was less than 50% throughout. Besides, the Kd in test [1] is less than 0.2 nM.
`CNc1cc(Nc2cccn([C@H]3CCCC[C@H]3OC)c2=O)nc2c(C(=O)NCC3(CO)CC3)cnn12` [I-1047]: the inhibition at 10 µM on JAK2 kinase domain (JH1) and at Tyk2 kinase domain (DH1) was less than 50% in each case. Also, the Kd in test [1] fell in the range of 0.2 to 1 nM.
Regarding `CNc1cc(Nc2cccn([C@@H]3CCC[C@H](OC)C3)c2=O)nc2c(C(=O)N[C@@H]3CC[C@H]3O)cnn12` [I-1054], the inhibition at 10 µM at JAK2 kinase domain (JH1) and at Tyk2 kinase domain (DH1) was less than 50% throughout. Moreover, in test [1], the Kd was less than 0.2 nM.
Turning to `CNc1cc(Nc2cccn([C@@H]3CCC[C@H](OC)C3)c2=O)nc2c(C(=O)N[C@H]3CC[C@@H]3O)cnn12` [I-1055], the inhibition at 10 µM at JAK2 kinase domain (JH1) and at Tyk2 kinase domain (DH1) was less than 50% in each case. In addition, the Kd in test [1] was 0.2 to 1 nM.
Regarding `CNc1cc(Nc2cccn([C@H]3CCCC[C@H]3O)c2=O)nc2c(C(=O)N[C@H]3CC[C@@H]3OC)cnn12` [I-1058], the inhibition at 10 µM at JAK2 kinase domain (JH1) and at Tyk2 kinase domain (DH1) was less than 50% throughout. Moreover, in test [1], the Kd lay within 0.2 to 1 nM.
On to `CNc1cc(Nc2cccn([C@H]3C[C@@H]3F)c2=O)nc2c(C(=O)NCC(C)(C)CO)cnn12` [I-1060], for which the inhibition at 10 µM at JAK2 kinase domain (JH1) and on Tyk2 kinase domain (DH1) was less than 50% in each case. In test [1], this molecule registered a Kd of less than 0.2 nM.
With `CNc1cc(Nc2cccn([C@@H]3CCC[C@@H](O)C3)c2=O)nc2c(C(=O)N[C@H]3CC[C@@H]3OC)cnn12` [I-1064], the inhibition at 10 µM on JAK2 kinase domain (JH1) and on Tyk2 kinase domain (DH1) was less than 50% each time. This molecule also gave a dissociation constant Kd in test [1] of less than 0.2 nM.
As for `CNc1cc(-c2cn(C3CCOCC3)c3ncccc23)nc2c(C(=O)N[C@H]3CC[C@@H]3OC)cnn12` [I-1065], the inhibition at 10 µM on JAK2 kinase domain (JH1) and at Tyk2 kinase domain (DH1) was less than 50% in each case. Besides, the Kd in test [1] was less than 0.2 nM.
Turning to `CNc1cc(Nc2cc(Cl)cn(C3CCOCC3)c2=O)nc2c(C(=O)N[C@H]3CC[C@H]3O)cnn12` [I-1068], the inhibition at 10 µM on JAK2 kinase domain (JH1) and on Tyk2 kinase domain (DH1) was less than 50% in each case. The Kd in test [1] was less than 0.2 nM.
As for `CNc1cc(Nc2cc(Cl)cn(C3CCOCC3)c2=O)nc2c(C(=O)N[C@@H]3CC[C@@H]3O)cnn12` [I-1069], the inhibition at 10 µM on JAK2 kinase domain (JH1) and on Tyk2 kinase domain (DH1) was less than 50% each time. The dissociation constant Kd in test [1] lay within 0.2 to 1 nM.
Take `CNc1cc(Nc2cccn(-c3ncc(C)s3)c2=O)nc2c(C(=O)N[C@H]3CC[C@@H]3O)cnn12` [I-1071]: the inhibition at 10 µM on JAK2 kinase domain (JH1) and on Tyk2 kinase domain (DH1) was less than 50% throughout. This molecule showed a dissociation constant (Kd) in test [1] of 1 to 10 nM.
Take `CNc1cc(Nc2cccn(-c3ncc(C)s3)c2=O)nc2c(C(=O)N[C@H]3CC[C@H]3O)cnn12` [I-1072]: the inhibition at 10 µM on JAK2 kinase domain (JH1) and at Tyk2 kinase domain (DH1) was less than 50% throughout. In test [1], this molecule yielded a Kd of less than 0.2 nM.
`CNc1cc(Nc2cccn(-c3ccccc3F)c2=O)nc2c(C(=O)NC[C@@H](C)CO)cnn12` [I-1076]: the inhibition at 10 µM on JAK2 kinase domain (JH1) and on Tyk2 kinase domain (DH1) was less than 50% in each case. The molecule also came in with a Kd in test [1] of less than 0.2 nM.
On to `CNc1cc(Nc2cccn(-c3ccccc3F)c2=O)nc2c(C(=O)NC[C@H](C)CO)cnn12` [I-1077], for which the inhibition at 10 µM on JAK2 kinase domain (JH1) and at Tyk2 kinase domain (DH1) was less than 50% in each case. In test [1], this molecule had a Kd of 0.2 to 1 nM.
As for `CNc1cc(Nc2cccn(C(C)C)c2=O)nc2c(C(=O)N[C@H]3CCC[C@H](O)C3)cnn12` [I-1078], the inhibition at 10 µM on JAK2 kinase domain (JH1) and on Tyk2 kinase domain (DH1) was less than 50% each time. In test [1], this molecule displayed a Kd of less than 0.2 nM.
`CNc1cc(Nc2cccn(C(C)C)c2=O)nc2c(C(=O)N[C@@H]3CCC[C@@H](O)C3)cnn12` [I-1079]: the inhibition at 10 µM on JAK2 kinase domain (JH1) and on Tyk2 kinase domain (DH1) was less than 50% each time. For the same molecule, in test [1], the Kd was 0.2 to 1 nM.
As for `CNc1cc(-c2cn(C3CC3)c3ncccc23)nc2c(C(=O)N[C@H]3CC[C@H]3O)cnn12` [I-1080, 5-(1-cyclopropyl-1H-pyrrolo[2,3-b]pyridin-3-yl)-N-((1S,2R)-2-hydroxycyclobutyl)-7-(methylamino)pyrazolo[1,5-a]pyrimidine-3-carboxamide], the inhibition at 10 µM at JAK2 kinase domain (JH1) and at Tyk2 kinase domain (DH1) was less than 50% throughout. In addition, the Kd in test [1] was less than 0.2 nM.
Consider `CNc1cc(-c2cn(C3CC3)c3ncccc23)nc2c(C(=O)N[C@@H]3CC[C@@H]3O)cnn12` [I-1081, 5-(1-cyclopropyl-1H-pyrrolo[2,3-b]pyridin-3-yl)-N-((1R,2S)-2-hydroxycyclobutyl)-7-(methylamino)pyrazolo[1,5-a]pyrimidine-3-carboxamide], for which the inhibition at 10 µM at JAK2 kinase domain (JH1) and on Tyk2 kinase domain (DH1) was less than 50% each time. In test [1], this molecule displayed a Kd of 0.2 to 1 nM.
